#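 Cultured in 96-well plates, cells were exposed to test compound for 48 hours across five concentrations. The concentration for 50% growth inhibition is given as GI50.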 Active and inactive are the calls of the source. Rule as the data show it: active = GI50 up to about 1.1 µM and inactive = higher.
# How the values were obtained:
# Assay in all cases: NCI anticancer screen, dose series, 48 h
# A498 = test system: A498
# HCC 2998 = test system: HCC 2998
# HOP-62 = test system: HOP-62
# K562 = test system: K562
# LXFL 529 = test system: LXFL 529
# M14 = test system: M14
# OVCAR-3 = test system: OVCAR-3
# OVCAR-4 = test system: OVCAR-4
# SF-539 = test system: SF-539
# SK-MEL-2 = test system: SK-MEL-2
# SK-MEL-5 = test system: SK-MEL-5
# SNB-19 = test system: SNB-19
# UACC-257 = test system: UACC-257
# UACC-62 = test system: UACC-62
# UO-31 = test system: UO-31
SMILES,GI50 (A498),GI50 (HCC 2998),GI50 (HOP-62),GI50 (K562),GI50 (LXFL 529),GI50 (M14),GI50 (OVCAR-3),GI50 (OVCAR-4),GI50 (SF-539),GI50 (SK-MEL-2),GI50 (SK-MEL-5),GI50 (SNB-19),GI50 (UACC-257),GI50 (UACC-62),GI50 (UO-31)
COc1cccc(-c2cc(=O)c3cc(C)c(C)c(C(=O)O)c3o2)c1,> 100 µM (inactive),> 100 µM (inactive),> 100 µM (inactive),> 100 µM (inactive),> 100 µM (inactive),> 100 µM (inactive),> 100 µM (inactive),> 100 µM (inactive),> 100 µM (inactive),> 100 µM (inactive),> 100 µM (inactive),> 100 µM (inactive),> 100 µM (inactive),> 100 µM (inactive),> 100 µM (inactive)
Nc1c(C(=O)NC23CC4CC(CC(C4)C2)C3)[n+]([O-])c2ccccc2[n+]1[O-],> 100 µM (inactive),> 100 µM (inactive),> 100 µM (inactive),> 100 µM (inactive),> 100 µM (inactive),> 100 µM (inactive),> 100 µM (inactive),> 100 µM (inactive),> 100 µM (inactive),> 100 µM (inactive),> 100 µM (inactive),> 100 µM (inactive),> 100 µM (inactive),> 100 µM (inactive),> 100 µM (inactive)
CCOC(=O)Cc1nc2ccc3c(c2nc1O)C(=O)c1ccccc1C3=O,28.4 µM (inactive),46.7 µM (inactive),28.2 µM (inactive),32.4 µM (inactive),47.9 µM (inactive),77.3 µM (inactive),58.3 µM (inactive),46.5 µM (inactive),76.4 µM (inactive),76.4 µM (inactive),26.1 µM (inactive),> 100 µM (inactive),65.8 µM (inactive),34.5 µM (inactive),35.4 µM (inactive)
CCc1cc2c(Nc3ccccc3)c3c(nc2s1)CCCC3,25.8 µM (inactive),> 100 µM (inactive),79.4 µM (inactive),3.41 µM (inactive),14.2 µM (inactive),> 100 µM (inactive),6.56 µM (inactive),24 µM (inactive),43 µM (inactive),> 100 µM (inactive),4.79 µM (inactive),> 100 µM (inactive),> 100 µM (inactive),15.3 µM (inactive),3.99 µM (inactive)
CC1(C)CC(=O)C(CC2C(=O)CCCC2=O)C(=O)C1,> 100 µM (inactive),> 100 µM (inactive),> 100 µM (inactive),> 100 µM (inactive),> 100 µM (inactive),> 100 µM (inactive),> 100 µM (inactive),> 100 µM (inactive),> 100 µM (inactive),> 100 µM (inactive),> 100 µM (inactive),> 100 µM (inactive),> 100 µM (inactive),> 100 µM (inactive),> 100 µM (inactive)
O=C1OC(c2ccccc2)=N/C1=C\c1cc(Cl)ccc1Cl,> 100 µM (inactive),> 100 µM (inactive),> 100 µM (inactive),18.1 µM (inactive),28.5 µM (inactive),32.6 µM (inactive),,> 100 µM (inactive),72.4 µM (inactive),> 100 µM (inactive),> 100 µM (inactive),> 100 µM (inactive),> 100 µM (inactive),> 100 µM (inactive),> 100 µM (inactive)
COC(=O)CCC(=O)CC1CC(=O)C2CCCN12 (stereo not given),> 100 µM (inactive),> 100 µM (inactive),> 100 µM (inactive),> 100 µM (inactive),> 100 µM (inactive),> 100 µM (inactive),> 100 µM (inactive),> 100 µM (inactive),> 100 µM (inactive),> 100 µM (inactive),> 100 µM (inactive),> 100 µM (inactive),> 100 µM (inactive),> 100 µM (inactive),> 100 µM (inactive)
CC(=O)OC1CC2C(C)(C)OC(=O)CC(OC(C)=O)[C@]2(C)C2CCC3(C)C(=CCC3c3ccoc3)[C@]12C (stereo not given in full),17.6 µM (inactive),18.4 µM (inactive),24 µM (inactive),14 µM (inactive),13.9 µM (inactive),18.9 µM (inactive),16.2 µM (inactive),46.5 µM (inactive),26.8 µM (inactive),10.9 µM (inactive),21.4 µM (inactive),14.3 µM (inactive),,22.2 µM (inactive),23.9 µM (inactive)
Cc1ccccc1C(=O)Oc1ccc(Oc2ccccc2)cc1,77.6 µM (inactive),86.1 µM (inactive),> 100 µM (inactive),> 100 µM (inactive),> 100 µM (inactive),> 100 µM (inactive),> 100 µM (inactive),> 100 µM (inactive),> 100 µM (inactive),> 100 µM (inactive),> 100 µM (inactive),> 100 µM (inactive),> 100 µM (inactive),> 100 µM (inactive),20.3 µM (inactive)
CSc1nc(NC2OCC(OC(C)=O)C(OC(C)=O)C2OC(C)=O)c(/N=C(\C)C(C)=O)c(=O)n1C (stereo not given),> 100 µM (inactive),> 100 µM (inactive),> 100 µM (inactive),> 100 µM (inactive),> 100 µM (inactive),> 100 µM (inactive),> 100 µM (inactive),> 100 µM (inactive),> 100 µM (inactive),> 100 µM (inactive),> 100 µM (inactive),> 100 µM (inactive),> 100 µM (inactive),> 100 µM (inactive),> 100 µM (inactive)
Cn1cnc(S[C@H]2[C@H]3C(=O)C=C4S[C@H]5C[C@]42C2=C(N5)C(=O)c4[nH]cc5c4C2=[N+]3CC5)c1C[C@H](N)C(=O)O,18.8 µM (inactive),16.2 µM (inactive),,17.3 µM (inactive),14.1 µM (inactive),15.4 µM (inactive),3.5 µM (inactive),17.1 µM (inactive),16.5 µM (inactive),13.7 µM (inactive),13.4 µM (inactive),17.6 µM (inactive),16.1 µM (inactive),15.7 µM (inactive),17.5 µM (inactive)
Cc1c2ccncc2c(C)c2c1[nH]c1ccc(OC(C)C)cc12,1.47 µM (inactive),2.03 µM (inactive),1.35 µM (inactive),1.13 µM (inactive),0.787 µM (active),1.6 µM (inactive),1.61 µM (inactive),1.71 µM (inactive),1.82 µM (inactive),1.58 µM (inactive),1.77 µM (inactive),1.59 µM (inactive),1.82 µM (inactive),,1.53 µM (inactive)
Cc1ccc(Oc2ccc([N+](=O)[O-])cc2[N+](=O)[O-])c(C)c1,37.9 µM (inactive),> 100 µM (inactive),49.2 µM (inactive),30.5 µM (inactive),41 µM (inactive),48.6 µM (inactive),35.2 µM (inactive),32.2 µM (inactive),58.7 µM (inactive),56.9 µM (inactive),21.1 µM (inactive),,26.1 µM (inactive),45 µM (inactive),40.5 µM (inactive)

# — ChEMBL document CHEMBL1201862, “PubChem BioAssay data set” (2004)
